Structures are written as SMILES.

T1 sequence (P50406 whole entry): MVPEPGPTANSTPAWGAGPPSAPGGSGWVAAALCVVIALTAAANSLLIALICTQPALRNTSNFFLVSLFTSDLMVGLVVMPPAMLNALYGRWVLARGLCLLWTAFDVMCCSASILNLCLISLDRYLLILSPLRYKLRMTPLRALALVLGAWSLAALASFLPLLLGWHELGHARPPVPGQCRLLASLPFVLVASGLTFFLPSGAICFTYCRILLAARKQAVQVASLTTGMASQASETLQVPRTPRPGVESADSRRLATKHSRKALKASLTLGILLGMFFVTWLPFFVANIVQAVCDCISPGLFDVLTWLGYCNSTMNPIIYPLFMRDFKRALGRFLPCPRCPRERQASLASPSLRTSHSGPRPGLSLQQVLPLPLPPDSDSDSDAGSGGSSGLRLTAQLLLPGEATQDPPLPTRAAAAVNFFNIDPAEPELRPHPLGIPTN

This assay has as its target T1, recombinant human 5-HT6 receptor (Homo sapiens, UniProt P50406).
T1 construct: expressed in transfected cells; membranes used
Briefly: Radioligand binding studies, competition for [3H]LSD binding in HEK293 cell membranes. Particulars: [3H]LSD (5 nM), membranes of HEK293 cells stably expressing recombinant human 5-HT6 receptor, pH 7.4, 37° C., 60 min; read-out: 5-HT6 affinity values (pKi) (converted). The procedure:
The binding activity of compounds of this invention in vitro was determined as follows. Duplicate determinations of ligand affinity are made by competing for binding of [^3H]LSD in cell membranes derived from HEK293 cells stably expressing recombinant human 5-HT6 receptor.
All determinations were made in assay buffer containing 50 mM Tris-HCl, 10 mM MgSO4, 0.5 mM EDTA, 1 mM ascorbic acid, pH 7.4 at 37° C., in a 250 microliter reaction volume. Assay tubes containing [^3H] LSD (5 nM), competing ligand, and membrane were incubated in a shaking water bath for 60 min. at 37° C., filtered onto Packard GF-B plates (pre-soaked with 0.3% PEI) using a Packard 96 well cell harvester and washed 3 times in ice cold 50 mM Tris-HCl. Bound [^3H] LSD was determined as radioactive counts per minute using Packard TopCount.
Displacement of [3H]LSD from the binding sites was quantified by fitting concentration-binding data to a 4-parameter logistic equation:
[formula] where Hill is the Hill slope, [ligand] is the concentration of competing radioligand and IC50 is the concentration of radioligand producing half-maximal specific binding of radioligand. The specific binding window is the difference between the Bmax and the basal parameters.
For `O=S(=O)(c1ccccc1Cl)c1c[nH]c2c(OCCN3CCCC3)cccc12` [3-(2-Chloro-benzenesulfonyl)-7-(2-pyrrolidin-1-yl-ethoxy)-1H-indole], the Ki is 3.98 nM.

Consider `O=S(=O)(c1ccc(Cl)c(Cl)c1)c1c[nH]c2c(OCCN3CCCC3)cccc12` [3-(3,4-Dichloro-benzenesulfonyl)-7-(2-pyrrolidin-1-yl-ethoxy)-1H-indole], for which the Ki was 20 nM.

Take `O=S(=O)(c1cccc(Cl)c1)c1c[nH]c2c(OCCN3CCCC3)cccc12` [3-(3-Chloro-benzenesulfonyl)-7-(2-pyrrolidin-1-yl-ethoxy)-1H-indole]: the Ki is 5.01 nM. Turning to `O=S(=O)(c1ccccc1)c1c[nH]c2c(OCCN3CCCC3)cccc12` [3-Benzenesulfonyl-7-(2-pyrrolidin-1-yl-ethoxy)-1H-indole], the Ki is 20 nM.
